Tests used:
PARK7 [1] = biological target: T1, PARK7 (Homo sapiens, UniProt Q99497); assay: High-throughput screen of the crude compound library, PARK7 fluorescence polarization (FP) assay with FP reagent JYQ-107; format: biochemical; settings: for inhibition at 1.25 µM: read-out: HTS FP assay %Inhibition (1.25 µM)
T1 sequence (Q99497 1-189): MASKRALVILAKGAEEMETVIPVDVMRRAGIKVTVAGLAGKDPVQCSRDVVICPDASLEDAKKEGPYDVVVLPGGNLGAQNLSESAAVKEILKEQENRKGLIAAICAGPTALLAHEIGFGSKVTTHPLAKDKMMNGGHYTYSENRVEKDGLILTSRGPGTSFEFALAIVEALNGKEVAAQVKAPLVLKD

PARK7 [2] = biological target: T1, PARK7; assay: Hit validation and pure-compound testing in the PARK7 FP assay with JYQ-107; format: biochemical; settings: pure compounds
[3] = 1.25 µM, crude compound library, FP reagent JYQ-107

Molecule | inhibition at 1.25 µM (PARK7 [1]; [3]) | also measured
N#CN1CC[C@@H](C(=O)Nc2nc3c(s2)CN(C(=O)c2cc(-c4cccc(Cl)c4)no2)CC3)C1 [compound 453] | 52.8% | –
CC(C)(C)OC(=O)N1CC[C@H](C(=O)N2CCc3nc(NC(=O)[C@@H]4CCN(C#N)C4)sc3C2)C1 [compound 454] | 73.8% | –
N#CN1CC[C@@H](C(=O)Nc2nc3c(s2)CN(C(=O)c2ccc4cc5ccccc5cc4c2)CC3)C1 [compound 455] | 79.5% | –
N#CN1CC[C@@H](C(=O)Nc2nc3c(s2)CN(C(=O)c2cccc4cc5ccccc5cc24)CC3)C1 [compound 456] | 80.6% | –
N#CCC(=O)N1CCc2nc(NC(=O)[C@@H]3CCN(C#N)C3)sc2C1 [compound 457] | 49.3% | –
CC(=O)Oc1ccccc1C(=O)N1CCc2nc(NC(=O)[C@@H]3CCN(C#N)C3)sc2C1 [compound 458] | 67.9% | –
N#CN1CC[C@@H](C(=O)Nc2nc3c(s2)CN(C(=O)CCc2ccccc2)CC3)C1 [compound 459] | 72.7% | –
N#CN1CC[C@@H](C(=O)Nc2nc3c(s2)CN(C(=O)C(Cl)(Cl)Cl)CC3)C1 [compound 460] | 6.9% | –
N#CN1CC[C@@H](C(=O)Nc2nc3c(s2)CN(C(=O)CN2CCOCC2)CC3)C1 [compound 461] | 72.7% | –
N#CN1CC[C@@H](C(=O)Nc2nc3c(s2)CN(C(=O)C2CC(=O)NC(=O)N2)CC3)C1 (stereo partly shown) [compound 462] | 60.1% | –
CN1CCN(CC(=O)N2CCc3nc(NC(=O)[C@@H]4CCN(C#N)C4)sc3C2)CC1 [compound 463] | 67.3% | –
N#CN1CC[C@@H](C(=O)Nc2nc3c(s2)CN(C(=O)C2CC2)CC3)C1 [compound 464] | 78.9% | –
N#CN1CC[C@@H](C(=O)Nc2nc3c(s2)CN(C(=O)CC2C(=O)Nc4ccccc42)CC3)C1 (stereo partly shown) [compound 465] | 81.8% | –
CC(=O)C(=O)N1CCc2nc(NC(=O)[C@@H]3CCN(C#N)C3)sc2C1 [compound 466] | 58.5% | –
COCC(=O)N1CCc2nc(NC(=O)[C@@H]3CCN(C#N)C3)sc2C1 [compound 467] | 67.9% | –
N#CN1CC[C@@H](C(=O)Nc2nc3c(s2)CN(C(=O)c2cnccn2)CC3)C1 [compound 468] | – | HTS FP assay %Inhibition (1.25 µM) (PARK7 [1]; [3]): 76.5%; % Inhibition (PARK7 [1]; HTS of crude compound library, sheet "SMILES+%Inh HTS"): 76.5%
Cc1ncc(C(=O)N2CCc3nc(NC(=O)[C@@H]4CCN(C#N)C4)sc3C2)s1 [compound 469] | 76% | –
N#CN1CC[C@@H](C(=O)Nc2nc3c(s2)CN(C(=O)c2ccc4c(c2)OCO4)CC3)C1 [compound 470] | 78.4% | –
N#CN1CC[C@@H](C(=O)Nc2nc3c(s2)CN(C(=O)c2ccc4c(c2)ncn4C2CCCCO2)CC3)C1 (stereo partly shown) [compound 471] | 80% | –
CN1CCN(c2ccc(C(=O)N3CCc4nc(NC(=O)[C@@H]5CCN(C#N)C5)sc4C3)cc2)CC1 [compound 472] | 70.8% | –
N#CN1CC[C@@H](C(=O)Nc2nc3c(s2)CN(C(=O)c2ccc(N4CCOCC4)cc2)CC3)C1 [compound 473] | 72.4% | –
CN1CCC(C(=O)N2CCc3nc(NC(=O)[C@@H]4CCN(C#N)C4)sc3C2)CC1 [compound 474] | 72.5% | –
CC(=O)N1CCC(C(=O)N2CCc3nc(NC(=O)[C@@H]4CCN(C#N)C4)sc3C2)CC1 [compound 475] | 68.5% | –
N#CN1CC[C@@H](C(=O)Nc2nc3c(s2)CN(C(=O)C2CCN(c4ncccn4)CC2)CC3)C1 [compound 476] | 70.3% | –
(R)-1-Cyano-N-(5-(4-hydroxybenzoyl)-4,5,6,7-tetrahydrothiazolo[5,4-c]pyridin-2-yl)pyrrolidine-3-carboxamide [Compound 3] | – | % Inhibition 0.25 µM (PARK7 [2]; 0.25 µM): 58.4%; % Inhibition 1 µM (PARK7 [2]; 1 µM): 90.1%; potency in FP assay compared to JYQ-88 (PARK7 [2]; 0.25 and 1 μM): slight improvement in potency compared to JYQ-88

— PMC11129182, “Development of Inhibitors, Probes, and PROTAC Provides a Complete Toolbox to Study PARK7 in the Living Cell” (Journal of Medicinal Chemistry, 2024)
